Where a name gives a salt, the structure may show the parent alone.
What was measured:
Format in all cases: physicochemical
[1] = Particle size analysis by Malvern light scattering, hexane as dispersant; details: for D90, 90% of the particles by volume less than / volume mean diameter, D[4,3] / fines (particles below about 1 micron detected): Malvern, hydrochloride monohydrate; for D90, 90% of the particles by volume less than / volume mean diameter, D[4,3]: dried crystals; for particle size distribution compared with batch crystallized and milled sample: impinging jet material vs comparative 15.6 kg sample
Method: X-ray diffraction (XRD) and differential scanning calorimetry (DSC) indicated the correct form of Ziprasidone hydrochloride monohydrate was produced by the impinging jet reactive crystallization process. The dried powder crystals were sieved through a 600 micron sieve as a means to delump. The particles were analyzed by Malvern using hexane as a dispersant.
The crystals were sieved through a 600 micron sieve to delump and the particles were analyzed by Malvern using hexane as a dispersant. […] According to patent EU 0 965 343 A2 (08.06.1999), the most preferred mean particle size of Ziprasidone hydrochloride monohydrates is in the 5-30 micron range obtained through milling operations which the present invention achieves without the need for high intensity milling. The particle sizes stipulated herein and in the claims refer to particle sizes determined with Malvern light scattering.
In a comparative 15.6 kg sample produced by the typical batch crystallization process method followed by milling using a pin mill at 10,000 rpm, the volume mean diameter, D[4,3], was 23.6 microns with 90% of the particles by volume less than 51 microns, while 5.4% of the batch by the volume distribution had particle size less than 1 micron indicating a much greater number of fines. […]

[2] = Dry particle sizing analysis (SympaTec)
Method: The crystals were dried in a vacuum oven at 50° C. and 10 inches of Hg with an air bleed for 24 hours. The dried material was sieved through a 30 mesh (600 μm) screen as a means to delump. Differential scanning calorimetry and x-ray diffraction confirmed the complete conversion to the Voriconazole free-base. No unreacted Voriconazole camphorsulfonate was detected.
Specification of product conventionally obtained by jet milling is 90% less than 130 microns and 50% less than 50 microns.

[3] = Particle size analysis (Aerosizer)
Method: Flow of neat methanol and ethyl acetate was initiated through their respective jets at 20 ml/min for 5 seconds from separate reservoirs to establish steady state flow. By way of two 3-way valves the solutions of 5,8,14-triazatetracyclo[10.3.1.0^2,11.0^4,9]-hexadeca-2(11),3,5,7,9-pentaene free base solution and (L)-tartaric acid were switched on so they would impinge each other at the same 20 ml/min flow rate. The velocities through the jets were 13.4 meters/sec. After 1 minute of impingement the flows were stopped and the resulting slurry was allowed to age in the agitated receiver for 5 minutes. The slurry was vacuum filtered and dried at 40° C. overnight and delumped through a 500 micron sieve.

[4] = Particle size of the jet milled seed (method not given)
Method: A receiving vessel contained 250 ml of methanol and 250 ml of ethyl acetate to which 20 milligrams of jet milled 5,8,14-triazatetracyclo[10.3.1.0^2,11.0^4,9]-hexadeca-2(11),3,5,7,9-pentaene (L)-tartrate were added as seed. […] The receiver was equipped with magnetic stirrer to suspend the seed in the methanol-ethyl acetate solvent system. The impinging jet apparatus was submerged in the receiver vessel with both jets having inside diameters of 0.007 inches (ID).

D90, 90% of the particles by volume less than [1] | volume mean diameter, D[4,3] [1] | SMILES | fines (particles below about 1 micron detected) [1] | particle size distribution compared with batch crystallized and milled sample [1] | also measured
41 microns | 22.5 microns | O=C1Cc2cc(CCN3CCN(c4nsc5ccccc45)CC3)c(Cl)cc2N1 [Example 2, Ziprasidone hydrochloride monohydrate] | No particles of less that 1.0 micron were detected | narrower particle size distribution with fewer fines produced | –
210 microns | 104 microns | O=C1Cc2cc(CCN3CCN(c4nsc5ccccc45)CC3)c(Cl)cc2N1 [Example 3, Ziprasidone hydrochloride monohydrate] | No particles below 1 micron were measured | – | –

More lines, now with the values behind:

SMILES | D90, 90% of the particles by volume less than [1] | volume mean diameter, D[4,3] [1] | fines (particles below about 1 micron detected) [1] | particle size distribution compared with batch crystallized and milled sample [1] | also measured
O=C1Cc2cc(CCN3CCN(c4nsc5ccccc45)CC3)c(Cl)cc2N1 [Example 1, Ziprasidone hydrochloride monohydrate] | 83 microns | 43 microns | No particles with diameters of less that 0.9 micron were detected | narrower particle size distribution with fewer fines produced | –
C[C@@H](c1ncncc1F)[C@](O)(Cn1cncn1)c1ccc(F)cc1F [Example 4, Voriconazole free base] | – | – | – | – | 50% of particles (D[v,0.50]) less than [2]: 18 microns; 90% of particles (D[v,0.9]) less than [2]: 41 microns; volume mean diameter ([2]; sieved through 30 mesh): 22 microns
O=C(O)C(O)C(O)C(=O)O.c1cnc2cc3c(cc2n1)C1CNCC3C1 [Example 5, 5,8,14-triazatetracyclo[10.3.1.0^2,11.0^4,9]-hexadeca-2(11),3,5,7,9-pentaene L-tartrate] | – | – | – | – | 5% of particles less than [3]: 5 microns; 95% of the particles less than [3]: 15 microns; volume mean diameter ([3]; delumped through 500 micron sieve): 10 microns
O=C(O)C(O)C(O)C(=O)O.c1cnc2cc3c(cc2n1)C1CNCC3C1 [seed, 5,8,14-triazatetracyclo[10.3.1.0^2,11.0^4,9]-hexadeca-2(11),3,5,7,9-pentaene (L)-tartrate] | – | – | – | – | volume mean diameter [4]: 2.7 microns
